Measured values as given in ChEMBL document CHEMBL5375949, “The evolution of small molecule enzyme activators” (RSC Med Chem, 2023).
pEC50, pIC50: −log10 of the molar value.

Assays:
[1] = molecular target: T1, Glucose-6-phosphate 1-dehydrogenase (Homo sapiens, UniProt P11413); assay: Activation of G6PD (unknown origin) expressed in Escherichia coli C43(DE3) cells using G6P as substrate in presence of NADP+ by resazurin dye-based assay
[2] = molecular target: T1, Glucose-6-phosphate 1-dehydrogenase; assay: Activation of G6PD dimerization in lymphocytes isolated from G6PD-deficient patient carrying canton variant expressed in Escherichia coli C43(DE3) cells using G6P as substrate assessed as increase in lysate activity in presence of NADP+ by resazurin dye based fluorescence assay relative to control; type: subcellular; conditions: Lymphocyte, filed as activator
N-glycosylase/DNA lyase = N-glycosylase/DNA lyase (Homo sapiens, UniProt O15527); assay: Activation of OGG1 (unknown origin) by fluorescence-based assay
A549 = assay: Anti-oxidative activity in human A549 cells assessed as reduction in cell injury relative to control; type: functional; set-up: scale not given: the % may be the effect or the level left
NCI-H3255 = assay: Cytotoxicity against TKI-sensitive LUAD immortalized human NCI-H3255 cells assessed as inhibition of cell growth incubated for 48 hrs by Beckman Coulter cell counter analysis; type: functional, cell-based; conditions: NCI-H3255, 48 h
HCC827 = assay: Cytotoxicity against TKI-sensitive LUAD immortalized human HCC827 cells assessed as inhibition of cell growth incubated for 48 hrs by Beckman Coulter cell counter analysis; type: functional, cell-based; conditions: HCC827, 48 h
NCI-H1975 [3] = assay: Cytotoxicity against d TKI-resistant LUAD human NCI-H1975 cells assessed as inhibition of cell growth incubated for 48 hrs by Beckman Coulter cell counter analysis; type: functional, cell-based; conditions: NCI-H1975, 48 h
NCI-H1650 = assay: Cytotoxicity against d TKI-resistant LUAD human NCI-H1650 cells assessed as inhibition of cell growth incubated for 48 hrs by Beckman Coulter cell counter analysis; type: functional, cell-based; conditions: NCI-H1650, 48 h
NCI-H1975 [4] = assay: Antitumor activity against human NCI-H1975 cells xenografted in mouse model assessed as fold decrease in tumor growth; type: functional
[5] = molecular target: Insulin-degrading enzyme (Homo sapiens) (UniProt P14735); assay: Activation of IDE (unknown origin) using FRET1 as substrate at 6.25 uM by SpectraMax M5 multilabel plate reader analysis relative to control; conditions: filed as activator
[6] = Protection against rotenone-induced stress in human Induced pluripotent stem cell-derived neuron cells relative to control; type: functional
Homo sapiens = species: Homo sapiens; assay: Activation of recombinant sGC (unknown origin) assessed as fold increase
[7] = Activation of sGC (unknown origin); set-up: species or system Homo sapiens
[8] = Activation of procaspase-3 (unknown origin); set-up: species or system Homo sapiens
[9] = Activation of recombinant human procaspase-3 using Ac-DEVD-pNA as substrate preincubated for 12 hrs followed by substrate addition by absorbance based assay
MDA-MB-231 [10] = assay: Cytotoxicity against human MDA-MB-231 cells assessed as inhibition of cell growth incubated for 24 hrs by MTS assay; type: functional, cell-based; conditions: MDA-MB-231, 24 h
BT-474 = assay: Cytotoxicity against human BT-474 cells assessed as inhibition of cell growth incubated for 24 hrs by MTS assay; type: functional, cell-based; conditions: BT-474, 24 h
[11] = molecular target: Insulin-degrading enzyme (Homo sapiens) (UniProt P14735); assay: Activation of IDE (unknown origin) using FRET1 as substrate at 200 uM by SpectraMax M5 multilabel plate reader analysis relative to control; conditions: filed as activator
[12] = molecular target: Insulin-degrading enzyme (Homo sapiens) (UniProt P14735); assay: Activation of IDE (unknown origin) using SP1 as substrate in presence of ATP by SpectraMax M5 multilabel plate reader analysis relative to control; conditions: filed as activator
[13] = molecular target: 3',5'-cyclic-AMP phosphodiesterase 4D (Homo sapiens, UniProt Q08499); assay: Activation of PDE4D5 (unknown origin)
SUM-159-PT = assay: cells; conditions: Homo sapiens, 72 h
Description: Antiproliferative activity against human SUM159 cells assessed as inhibition of cell growth incubated for 72 hrs by Hoechst stain-based assay

MDA-MB-231 [14] = assay: cells; conditions: Homo sapiens, MDA-MB-231, 72 h
Description: Antiproliferative activity against human MDA-MB-231 cells assessed as inhibition of cell growth incubated for 72 hrs by Hoechst stain-based assay

[15] = molecular target: Angiotensin-converting enzyme 2 (Homo sapiens, UniProt Q9BYF1); assay: Activation of recombinant human ACE2 using McaAPK(Dnp)-OH as substrate preincubated for 15 mins followed by substrate addition spectra max Gemini M5 fluorescence plate reader analysis
[16] = molecular target: Indoleamine 2,3-dioxygenase 1 (Homo sapiens, UniProt P14902); assay: Positive allosteric modulation of recombinant human IDOL transfected in mouse P1.HTR cells assessed as increase in Kyn production incubated for 24 hrs; type: cell-based
[17] = molecular target: Indoleamine 2,3-dioxygenase 1 (Mus musculus, UniProt P28776); assay: Positive allosteric modulation of recombinant mouse IDOL transfected in mouse P1.HTR cells assessed as increase in Kyn production incubated for 24 hrs; type: cell-based
[18] = molecular target: T2, Carnitine O-palmitoyltransferase 1, liver isoform (Homo sapiens) (UniProt P50416); assay: Activation of CPT-1 in human HeLa cells assessed as fold increase at 100 uM incubated for 10 mins relative to control; type: cell-based; conditions: filed as activator
T2 sequence (whole entry): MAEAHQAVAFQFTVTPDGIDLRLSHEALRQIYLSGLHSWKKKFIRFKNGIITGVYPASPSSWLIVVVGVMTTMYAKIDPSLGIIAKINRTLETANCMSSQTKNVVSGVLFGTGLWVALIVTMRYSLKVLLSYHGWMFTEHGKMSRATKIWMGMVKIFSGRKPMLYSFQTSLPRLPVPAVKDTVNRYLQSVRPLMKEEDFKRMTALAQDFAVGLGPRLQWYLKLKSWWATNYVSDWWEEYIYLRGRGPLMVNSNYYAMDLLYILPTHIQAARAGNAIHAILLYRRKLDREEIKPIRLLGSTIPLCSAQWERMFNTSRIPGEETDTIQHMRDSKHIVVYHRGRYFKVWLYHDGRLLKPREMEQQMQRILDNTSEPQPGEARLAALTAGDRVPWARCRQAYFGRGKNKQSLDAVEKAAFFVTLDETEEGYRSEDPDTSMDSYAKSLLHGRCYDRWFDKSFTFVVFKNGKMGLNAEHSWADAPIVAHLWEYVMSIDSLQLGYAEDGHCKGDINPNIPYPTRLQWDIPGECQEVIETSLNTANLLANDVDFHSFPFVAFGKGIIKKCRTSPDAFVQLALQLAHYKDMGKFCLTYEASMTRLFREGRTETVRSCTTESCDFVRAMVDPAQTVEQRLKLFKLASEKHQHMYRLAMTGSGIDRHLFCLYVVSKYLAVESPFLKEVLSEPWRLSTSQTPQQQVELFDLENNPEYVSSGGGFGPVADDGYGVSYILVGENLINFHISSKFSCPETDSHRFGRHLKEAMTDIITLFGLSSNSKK

[19] = molecular target: T2, Carnitine O-palmitoyltransferase 1, liver isoform (Homo sapiens); assay: Activation of CPT-1 in human HeLa cells assessed as reduction in free fatty acid at 100 uM incubated for 10 mins relative to control; type: cell-based; set-up: scale not given: the % may be the effect or the level left; conditions: filed as activator
Mus musculus [20] = assay: Anti-obesity activity against diet-induced obese mouse expressing CPT-1 H327E mutant assessed as reduction in body weight at 400 mg/kg, IG administered for 12 week; type: functional; conditions: time 12 weeks
Mus musculus [21] = assay: Anti-obesity activity against diet-induced obese mouse expressing CPT-1 H327E mutant assessed as reduction in body fat percentage at 400 mg/kg, IG administered for 12 week relative to control; type: functional; set-up: scale not given: the % may be the effect or the level left; conditions: time 12 weeks

Sequence of Insulin-degrading enzyme (Homo sapiens) (P14735 whole entry): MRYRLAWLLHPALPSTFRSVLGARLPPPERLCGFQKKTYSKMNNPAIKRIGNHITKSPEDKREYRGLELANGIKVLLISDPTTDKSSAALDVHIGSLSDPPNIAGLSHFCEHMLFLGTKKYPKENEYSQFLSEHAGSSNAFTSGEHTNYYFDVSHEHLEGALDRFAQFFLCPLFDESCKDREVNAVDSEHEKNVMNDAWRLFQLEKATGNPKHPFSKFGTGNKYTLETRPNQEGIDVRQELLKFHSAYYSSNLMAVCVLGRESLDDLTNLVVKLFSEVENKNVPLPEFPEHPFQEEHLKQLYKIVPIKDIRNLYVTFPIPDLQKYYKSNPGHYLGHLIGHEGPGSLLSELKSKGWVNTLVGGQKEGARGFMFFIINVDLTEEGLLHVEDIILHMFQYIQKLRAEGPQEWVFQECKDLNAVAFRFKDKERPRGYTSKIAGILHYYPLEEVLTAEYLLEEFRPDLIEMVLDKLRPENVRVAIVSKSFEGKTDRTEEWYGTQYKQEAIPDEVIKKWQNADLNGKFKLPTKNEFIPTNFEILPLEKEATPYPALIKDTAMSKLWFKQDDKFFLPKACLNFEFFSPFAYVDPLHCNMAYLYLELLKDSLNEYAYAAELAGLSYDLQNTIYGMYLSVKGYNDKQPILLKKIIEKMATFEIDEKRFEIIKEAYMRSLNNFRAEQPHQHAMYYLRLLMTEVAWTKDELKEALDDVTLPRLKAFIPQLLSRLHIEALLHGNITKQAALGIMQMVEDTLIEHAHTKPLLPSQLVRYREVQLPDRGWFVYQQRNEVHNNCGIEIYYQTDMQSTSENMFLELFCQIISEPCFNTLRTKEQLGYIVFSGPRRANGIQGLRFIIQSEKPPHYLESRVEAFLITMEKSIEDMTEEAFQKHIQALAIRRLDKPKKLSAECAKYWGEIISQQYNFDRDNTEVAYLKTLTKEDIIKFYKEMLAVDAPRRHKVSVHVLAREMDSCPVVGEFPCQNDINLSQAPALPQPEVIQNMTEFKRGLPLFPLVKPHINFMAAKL
Sequence of N-glycosylase/DNA lyase (O15527 whole entry): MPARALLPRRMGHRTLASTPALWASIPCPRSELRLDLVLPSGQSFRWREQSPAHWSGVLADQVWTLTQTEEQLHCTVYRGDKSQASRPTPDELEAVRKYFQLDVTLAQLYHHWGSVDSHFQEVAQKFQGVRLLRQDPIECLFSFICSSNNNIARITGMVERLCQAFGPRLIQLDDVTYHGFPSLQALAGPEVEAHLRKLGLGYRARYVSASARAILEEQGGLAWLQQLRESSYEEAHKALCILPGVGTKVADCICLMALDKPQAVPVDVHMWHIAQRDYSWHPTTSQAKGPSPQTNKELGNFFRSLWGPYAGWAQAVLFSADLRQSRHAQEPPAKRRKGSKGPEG
T1 sequence (P11413 whole entry): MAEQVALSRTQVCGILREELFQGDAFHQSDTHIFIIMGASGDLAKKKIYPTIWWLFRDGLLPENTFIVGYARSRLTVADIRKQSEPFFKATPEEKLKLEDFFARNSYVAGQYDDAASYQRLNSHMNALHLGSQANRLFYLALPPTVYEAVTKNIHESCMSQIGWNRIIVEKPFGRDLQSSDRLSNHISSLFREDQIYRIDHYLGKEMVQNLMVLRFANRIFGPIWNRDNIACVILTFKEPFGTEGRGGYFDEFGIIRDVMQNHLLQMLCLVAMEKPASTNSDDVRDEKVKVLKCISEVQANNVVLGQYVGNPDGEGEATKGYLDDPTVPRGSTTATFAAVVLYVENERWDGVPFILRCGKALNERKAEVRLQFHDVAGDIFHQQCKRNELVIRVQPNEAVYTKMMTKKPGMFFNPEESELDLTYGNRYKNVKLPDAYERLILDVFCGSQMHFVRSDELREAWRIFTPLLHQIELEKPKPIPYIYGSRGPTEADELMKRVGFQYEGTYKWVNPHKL
Sequence of Angiotensin-converting enzyme 2 (Q9BYF1 whole entry): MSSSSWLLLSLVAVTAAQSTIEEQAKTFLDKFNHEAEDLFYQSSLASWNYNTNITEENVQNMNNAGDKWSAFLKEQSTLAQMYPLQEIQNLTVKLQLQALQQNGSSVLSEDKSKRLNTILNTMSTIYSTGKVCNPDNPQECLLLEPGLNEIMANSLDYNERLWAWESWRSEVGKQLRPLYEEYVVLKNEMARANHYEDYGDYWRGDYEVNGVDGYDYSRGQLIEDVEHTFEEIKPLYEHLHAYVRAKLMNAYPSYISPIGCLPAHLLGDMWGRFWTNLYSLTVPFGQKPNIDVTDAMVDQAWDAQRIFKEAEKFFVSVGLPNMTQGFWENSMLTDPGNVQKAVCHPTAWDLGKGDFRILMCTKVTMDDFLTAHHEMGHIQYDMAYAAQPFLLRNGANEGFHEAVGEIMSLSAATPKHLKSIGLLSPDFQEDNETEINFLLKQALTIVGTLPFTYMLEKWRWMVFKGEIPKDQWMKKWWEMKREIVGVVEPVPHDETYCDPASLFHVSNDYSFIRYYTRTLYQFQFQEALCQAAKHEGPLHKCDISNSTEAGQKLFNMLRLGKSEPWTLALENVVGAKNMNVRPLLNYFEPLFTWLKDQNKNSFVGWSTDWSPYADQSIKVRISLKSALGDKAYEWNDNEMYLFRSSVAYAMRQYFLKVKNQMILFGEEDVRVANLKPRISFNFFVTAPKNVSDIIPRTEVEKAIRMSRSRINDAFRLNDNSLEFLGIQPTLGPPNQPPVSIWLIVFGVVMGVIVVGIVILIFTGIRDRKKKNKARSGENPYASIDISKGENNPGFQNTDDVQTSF
Sequence of Indoleamine 2,3-dioxygenase 1 (Homo sapiens, UniProt P14902) (P14902 whole entry): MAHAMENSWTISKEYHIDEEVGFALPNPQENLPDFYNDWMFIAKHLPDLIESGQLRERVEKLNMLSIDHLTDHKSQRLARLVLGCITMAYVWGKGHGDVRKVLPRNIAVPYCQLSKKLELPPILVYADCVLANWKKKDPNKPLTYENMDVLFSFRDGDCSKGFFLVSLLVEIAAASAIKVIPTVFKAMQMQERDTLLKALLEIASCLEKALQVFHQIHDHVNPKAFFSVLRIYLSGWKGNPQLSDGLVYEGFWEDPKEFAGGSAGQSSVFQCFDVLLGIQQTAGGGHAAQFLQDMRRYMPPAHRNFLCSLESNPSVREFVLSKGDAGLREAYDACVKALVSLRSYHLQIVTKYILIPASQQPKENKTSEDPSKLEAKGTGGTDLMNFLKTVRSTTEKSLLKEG
Sequence of 3',5'-cyclic-AMP phosphodiesterase 4D (Q08499 whole entry): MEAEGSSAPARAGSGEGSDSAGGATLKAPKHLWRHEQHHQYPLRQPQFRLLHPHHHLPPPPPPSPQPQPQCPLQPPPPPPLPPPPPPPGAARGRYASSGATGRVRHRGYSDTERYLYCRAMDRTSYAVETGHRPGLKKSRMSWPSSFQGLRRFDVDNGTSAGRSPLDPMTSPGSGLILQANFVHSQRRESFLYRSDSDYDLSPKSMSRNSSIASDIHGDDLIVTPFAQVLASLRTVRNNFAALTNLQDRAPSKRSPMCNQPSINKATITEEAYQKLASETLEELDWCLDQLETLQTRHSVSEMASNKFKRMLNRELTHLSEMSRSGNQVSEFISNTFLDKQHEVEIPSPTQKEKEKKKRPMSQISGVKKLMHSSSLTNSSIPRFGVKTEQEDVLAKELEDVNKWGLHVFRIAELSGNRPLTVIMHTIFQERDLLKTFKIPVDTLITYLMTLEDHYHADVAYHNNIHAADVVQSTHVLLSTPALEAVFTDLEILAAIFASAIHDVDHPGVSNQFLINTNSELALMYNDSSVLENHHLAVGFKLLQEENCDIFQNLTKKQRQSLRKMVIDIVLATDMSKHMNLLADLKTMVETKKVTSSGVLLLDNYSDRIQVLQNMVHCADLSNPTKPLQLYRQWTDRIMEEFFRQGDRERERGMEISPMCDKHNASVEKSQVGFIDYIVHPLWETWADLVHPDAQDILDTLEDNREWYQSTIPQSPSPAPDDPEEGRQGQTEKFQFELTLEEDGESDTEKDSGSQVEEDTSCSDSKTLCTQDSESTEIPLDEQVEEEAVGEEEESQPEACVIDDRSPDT
Sequence of Indoleamine 2,3-dioxygenase 1 (Mus musculus, UniProt P28776) (P28776 whole entry, canonical isoform): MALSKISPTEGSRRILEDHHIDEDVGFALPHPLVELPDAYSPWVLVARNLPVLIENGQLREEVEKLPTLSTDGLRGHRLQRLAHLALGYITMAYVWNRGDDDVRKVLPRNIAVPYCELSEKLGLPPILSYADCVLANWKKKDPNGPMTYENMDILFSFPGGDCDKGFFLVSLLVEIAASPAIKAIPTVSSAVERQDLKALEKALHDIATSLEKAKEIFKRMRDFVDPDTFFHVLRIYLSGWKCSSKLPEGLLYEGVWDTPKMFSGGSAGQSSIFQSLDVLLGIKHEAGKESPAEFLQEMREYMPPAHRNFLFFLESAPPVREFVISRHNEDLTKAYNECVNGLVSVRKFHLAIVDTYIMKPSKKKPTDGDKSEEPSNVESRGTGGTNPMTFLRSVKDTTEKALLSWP

c1ccc2c(CCNCCSSCCNCCc3c[nH]c4ccccc34)c[nH]c2c1
pEC50 [1]: 6.10 | Activity [2]: 78%

OC(Cn1ccnc1)(c1ccc(Cl)cc1Cl)C1CCCCC1 (stereo unspecified)
pEC50 (N-glycosylase/DNA lyase): 5.30 | Activity (A549): 650%

O=S(=O)(N[C@@H]1CCCC(N2c3ccccc3Oc3ccccc32)[C@H]1O)c1ccc(OC(F)(F)F)cc1 (stereo partly specified)
pIC50 (NCI-H3255): 4.91 | pIC50 (HCC827): 4.84 | pIC50 (NCI-H1975 [3]): 4.97 | pIC50 (NCI-H1650): 4.97 | fold change (FC) (NCI-H1975 [4]): 2

O=C(Nc1cccc(Cl)c1)N1CCC(c2cc(-c3ccco3)[nH]n2)CC1
Activity [5]: 60%

c1ccc2c(NC3CCCCC3)nc(C3CC3)nc2c1
pEC50 (N-glycosylase/DNA lyase): 6.11

CNc1nnc(C)c2c1cc(-c1ccc(F)cc1)n2C
pEC50 (N-glycosylase/DNA lyase): 5.29 | Activity (A549): 200%

O=C(c1cc(O)c(O)c(O)c1)c1ccc(O)c(O)c1O [EXIFONE]
Activity [6]: 80%

COC(=O)N(C)c1c(N)nc(-c2nn(Cc3ccccc3F)c3ncccc23)nc1N
fold change (FC) (Homo sapiens): < 73

O=C(Nc1ccc(S(=O)(=O)N2CCOCC2)cc1)c1cc(Cl)ccc1NS(=O)(=O)c1ccc(Cl)s1
pEC50 [7]: 6.30

O=C(Nc1cccc(-c2cn3ccccc3n2)c1)c1cc2cccc(O)c2oc1=O
pEC50 [8]: 5.89

O=C(CN1CCN(Cc2nc(-c3ccc(COc4ccc(F)cc4)cc3)no2)CC1)N/N=C/c1ccc(OCc2csc(Cc3ccc4c(c3)OCO4)n2)cc1O
pEC50 [9]: 6.02

CCCCCCCCc1ccc(CCC(N)(CO)CO)cc1 [FINGOLIMOD]
pIC50 (MDA-MB-231 [10]): 5.54 | pIC50 (BT-474): 5.07

Cc1cnc(N2CCN3CCCC3C2)nc1Oc1ccc(-n2ccnc2)cc1 (stereo unspecified)
pEC50 (N-glycosylase/DNA lyase): 5.34

O=C1CC(c2ccc(Cl)cc2)CC(=O)C1/C=N/OCc1nnsc1Cl (stereo unspecified)
Activity [11]: 500% | Activity [12]: 1000%

Cc1cc(N[C@@H](C)C(=O)Nc2ccccc2)nc(Nc2ccccc2)n1
pEC50 (N-glycosylase/DNA lyase): 5.39

CCc1nc(-c2ccc(Cl)c(F)c2)nn1CC(=O)NCc1cc(Cl)cc(Cl)c1
pEC50 [13]: 5.92

N#Cc1cccc(CN2CCc3ncn(Cc4ccc(Cl)cc4)c(=O)c3C2)c1
pIC50 (SUM-159-PT): 7.92 | pIC50 (MDA-MB-231 [14]): 8.52

Fc1ccccc1Cc1nc(-c2nc(C(F)(F)F)n[nH]2)cn2ccnc12 [ZAGOCIGUAT]
pEC50 [7]: 7.18

N=C(N)c1ccc(/N=N/Nc2ccc(C(=N)N)cc2)cc1 [DIMINAZENE]
pEC50 [15]: 5.09

O=C1OC2(c3ccc(O)cc3Oc3cc(O)ccc32)c2ccccc21 [FLUORESCEIN]
pEC50 [15]: 4.71

CC(=O)NCCc1c[nH]c2ccc(O)cc12 [ACETYLSEROTONIN]
pEC50 [16]: 4.68 | pEC50 [17]: 4.71

O=C(O)[C@H]1O[C@@H](Oc2cc3oc(-c4ccccc4)cc(=O)c3c(O)c2O)[C@H](O)[C@@H](O)[C@@H]1O [BAICALIN]
fold change (FC) [18]: 7 | Activity [19]: 50% | Activity (Mus musculus [20]): -12.5 g | Activity (Mus musculus [21]): -0.085%
